Among the data in US9783552B2, “Soluble guanylate cyclase activators” (MERCK SHARP & DOHME CORP., priority 2013, dated 2017) are EC50 and Emax values, retold here.

In this test the target is T1, sGC α1/β1 heterodimer (Homo sapiens, UniProt Q02108+Q02153).
T1 construct: expressed in transfected cells
T1 sequence (Q02108 1-690): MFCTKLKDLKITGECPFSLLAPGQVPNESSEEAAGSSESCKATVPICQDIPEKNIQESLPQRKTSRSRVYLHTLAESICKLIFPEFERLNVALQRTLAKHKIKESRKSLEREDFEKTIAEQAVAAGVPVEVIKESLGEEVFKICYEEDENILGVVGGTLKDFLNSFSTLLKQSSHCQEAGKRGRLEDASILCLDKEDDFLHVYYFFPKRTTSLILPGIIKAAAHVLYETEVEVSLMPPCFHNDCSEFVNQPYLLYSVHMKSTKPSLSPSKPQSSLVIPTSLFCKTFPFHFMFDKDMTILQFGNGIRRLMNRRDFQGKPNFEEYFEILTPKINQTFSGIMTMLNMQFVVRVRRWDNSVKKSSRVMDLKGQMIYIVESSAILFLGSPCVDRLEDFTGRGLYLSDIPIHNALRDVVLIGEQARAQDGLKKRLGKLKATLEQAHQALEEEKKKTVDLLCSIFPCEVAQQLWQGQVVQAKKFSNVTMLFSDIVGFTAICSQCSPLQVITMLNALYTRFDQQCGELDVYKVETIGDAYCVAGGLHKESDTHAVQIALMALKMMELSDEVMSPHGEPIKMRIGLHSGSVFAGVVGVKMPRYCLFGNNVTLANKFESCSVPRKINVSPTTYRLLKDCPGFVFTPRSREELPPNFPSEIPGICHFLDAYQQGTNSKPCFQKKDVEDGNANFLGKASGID
T1 sequence (Q02153 1-619): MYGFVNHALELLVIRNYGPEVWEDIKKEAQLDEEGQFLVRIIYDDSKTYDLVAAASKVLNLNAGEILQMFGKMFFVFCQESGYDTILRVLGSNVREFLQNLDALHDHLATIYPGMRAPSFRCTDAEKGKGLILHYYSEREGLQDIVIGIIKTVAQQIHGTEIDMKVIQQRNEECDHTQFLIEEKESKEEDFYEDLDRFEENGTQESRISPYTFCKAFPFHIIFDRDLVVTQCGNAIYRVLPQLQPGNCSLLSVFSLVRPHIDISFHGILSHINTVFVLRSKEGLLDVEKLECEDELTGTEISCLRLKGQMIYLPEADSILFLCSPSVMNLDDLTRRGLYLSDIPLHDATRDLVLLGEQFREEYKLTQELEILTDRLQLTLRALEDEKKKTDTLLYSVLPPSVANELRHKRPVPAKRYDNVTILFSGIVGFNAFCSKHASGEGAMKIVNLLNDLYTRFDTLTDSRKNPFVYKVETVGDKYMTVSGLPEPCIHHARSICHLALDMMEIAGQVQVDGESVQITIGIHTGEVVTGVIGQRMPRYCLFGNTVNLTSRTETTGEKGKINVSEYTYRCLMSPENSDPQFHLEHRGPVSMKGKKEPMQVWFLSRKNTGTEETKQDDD
Put plainly: Cell-Based sGC Functional Assay (CASA Assay). As to conditions: CHO-K1/sGC cells; for EC50: intracellular cGMP by HTRF, 1 hr at 37° C., IP from 4P fit, presence or absence of 1 μM DETA-NO not given; for Emax: cGMP as percentage of maximum cGMP production of Compound A (=100% activation), read-out: % ACT (percent activation). The source says: Biological Assays: Cell-Based sGC Functional Assay (CASA Assay)
sGC is a heme-containing enzyme that converts GTP to secondary messenger cGMP. Increases in cGMP levels affect several physiological processes including vasorelaxation through multiple downstream pathways. […] Heme-dependent activators (HDAs) preferentially activate sGC containing a ferrous heme group. To determine the effect of sGC activators on enzyme activity, the CASA assay was developed to monitor the generation of cGMP in a cell line that stably expresses the heterodimeric sGC protein.
A CHO-K1 cell line stably expressing the sGC α1/β1 heterodimer was generated using a standard transfection protocol. CHO-K1 cells were transfected with plasmids pIREShyghsGCα1 and pIRESneo-hsGCβ1 simultaneously using FUGENE reagent. Clones that stably express both subunits were selected with hygromycin and neomycin for ˜2 weeks. Clone #7 was chosen for the assay and was designated CHO-K1/sGC. CHO-K1/sGC cells were maintained in F-K12 medium containing 10% heat-inactivated Fetal Bovine Serum (FBS), 100 μg/mL penicillin/streptomycin, 0.5 mg/mL hygromycin and 0.25 mg/mL G418. The cells were then cryopreserved in LN2. On the day of the assay, cells were thawed and resuspended in EBSS Assay Buffer (EAB, Sigma, E3024) supplemented with 5 mM MgCl2, 10 mM HEPES (4-(2-hydroxyethyl)piperazine-1-ethanesulfonic acid) and 0.05% BSA (bovine serum albumin) and cell density was then adjusted to 4×10^5/mL with EAB. IBMX (3-isobutyl-1-methylxanthin, 0.5 mM) was added to inhibit degradation of cGMP. Compounds were diluted from DMSO stock solutions and added to the assay at a final DMSO concentration of 2.5%. Cells were incubated with compounds in the presence and absence of 1 μM of Diethylenetriamine/nitric oxide adduct (DETA-NO; Sigma, 17018) for 1 hr at 37° C. At the end of the incubation period, the reaction was terminated and the cells were lysed with the detection reagents from Cisbio Kits. The level of intracellular cGMP was determined using an HTRF-based assay kit (CisBio, 62GM2PEC), which detects the displacement of a fluorescence labeled cGMP from its specific antibody. The cGMP produced by test compounds was directly compared to the maximum cGMP production (this value was set to equal 100% activation) of the published sGC-HDA Compound A:
[drawing 123] (Example 1 in WO 2010/065275, published Jun. 10, 2010). The test compounds' activity was then expressed as a percentage of Compound A, the standard in every experiment. This percent activation was calculated either in the presence or absence of DETA-NO which was then plotted. IP and maximum fold induction was derived using ADA analysis software for 4P fit.
Background: In TR-FRET formats the signal depends on donor and acceptor labels being close together.

As a reminder, the EC50 is the concentration giving half of the maximal effect. High values mean lower potency in that assay, low ones higher potency in that assay. For the compound `[2H]C([2H])([2H])n1ncc2c(-c3nc(N)c4c(n3)NC(=O)C4(CC)C(=O)NC3CC3)nc(CCC(F)(F)C(F)(F)F)nc21` (single isomer, unassigned) [Example 34, 4-Amino-N-cyclopropyl-5-ethyl-2-(6-(3,3,4,4,4-pentafluorobutyl)-1-trideuteriomethyl-1H-pyrazolo[3,4-d]pyrimidin-4-yl)-6-oxo-6,7-dihydro-5H-pyrrolo[2,3-d]pyrimidine-5-carboxamide], the EC50 came to 143 nM and the Emax came out at 122%.
`Cn1ncc2c(-c3nc(N)c4c(n3)NC(=O)C4(C)NC(=O)CC3CC3)nc(CCC(F)(F)C(F)(F)F)nc21` (stereo not drawn) [Example 52, N-(4-Amino-5-methyl-2-(1-methyl-6-(3,3,4,4,4-pentafluorobutyl)-1H-pyrazolo[3,4-d]pyrimidin-4-yl)-6-oxo-6,7-dihydro-5H-pyrrolo[2,3-d]pyrimidin-5-yl)-2-cyclopropylacetamide]: the EC50 is 614 nM and the Emax came out at 92%.
On the same counts, the results for `Cn1ncc2c(-c3nc(N)c4c(n3)NC(=O)C4(C)C3CCCCC3)nc(CCC(F)(F)C(F)(F)F)nc21` (single isomer, unassigned) [Example 18, 4-Amino-5-cyclohexyl-5-methyl-2-(1-methyl-6-(3,3,4,4,4-pentafluorobutyl)-1H-pyrazolo[3,4-d]pyrimidin-4-yl)-5H-pyrrolo[2,3-d]pyrimidin-6(7H)-one] are 171 nM and 122%.
For `Cn1nc(Cl)c2c(-c3nc(N)c4c(n3)NC(=O)C4(C)c3ccc(F)cc3)nc(CCC(F)(F)C(F)(F)F)nc21` (single isomer, unassigned) [Example 58, 4-Amino-2-(3-chloro-1-methyl-6-(3,3,4,4,4-pentafluorobutyl)-1H-pyrazolo[3,4-d]pyrimidin-4-yl)-5-(4-fluorophenyl)-5-methyl-5H-pyrrolo[2,3-d]pyrimidin-6(7H)-one], a half-maximal response (EC50) required 632 nM and the Emax came out at 70%.
In the same order, the values of `[2H]C([2H])([2H])n1ncc2c(-c3nc(N)c4c(n3)NC(=O)C4(CC)C(N)=O)nc(CCC(F)(F)C(F)(F)F)nc21` (single isomer, unassigned) [Example 36, 4-Amino-5-ethyl-2-(6-(3,3,4,4,4-pentafluorobutyl)-1-trideuteriomethyl-1H-pyrazolo[3,4-d]pyrimidin-4-yl)-6-oxo-6,7-dihydro-5H-pyrrolo[2,3-d]pyrimidine-5-carboxamide] are 878 nM and 121%.
Turning to `CCn1ncc2c(-c3nc(N)c4c(n3)NC(=O)C4(C(=O)NC3CC3)C3CC3)nc(CCC(F)(F)C(F)(F)F)nc21` (single isomer, unassigned) [Example 38, 4-Amino-N,5-dicyclopropyl-2-(1-ethyl-6-(3,3,4,4,4-pentafluorobutyl)-1H-pyrazolo[3,4-d]pyrimidin-4-yl)-6-oxo-6,7-dihydro-5H-pyrrolo[2,3-d]pyrimidine-5-carboxamide], a half-maximal response (EC50) required 648 nM and the Emax worked out at 112%.
Take `[2H]C([2H])([2H])n1ncc2c(-c3nc(N)c4c(n3)NC(=O)C4(C)c3ccccc3)nc(CCC(F)(F)C(F)(F)F)nc21` (single isomer, unassigned) [Example 13, 4-Amino-5-methyl-2-(6-(3,3,4,4,4-pentafluorobutyl)-1-trideuteriomethyl-1H-pyrazolo[3,4-d]pyrimidin-4-yl)-5-phenyl-5H-pyrrolo[2,3-d]pyrimidin-6(7H)-one]: a half-maximal effect (EC50) was put at 40 nM and the Emax was 101%.
Turning to `[2H]C([2H])([2H])n1ncc2c(-c3nc(N)c4c(n3)NC(=O)C4(C(=O)NC3CC3)C(C)C)nc(CCC(F)(F)C(F)(F)F)nc21` (single isomer, unassigned) [Example 35, 4-Amino-N-cyclopropyl-5-isopropyl-2-(6-(3,3,4,4,4-pentafluorobutyl)-1-trideuteriomethyl-1H-pyrazolo[3,4-d]pyrimidin-4-yl)-6-oxo-6,7-dihydro-5N-pyrrolo[2,3-d]pyrimidine-5-carboxamide], the EC50 amounted to 62 nM and the Emax amounted to 107%.
With `[2H]C([2H])([2H])n1ncc2c(-c3nc(N)c4c(n3)NC(=O)C4(C)c3ccc(-c4cnn(C)c4)cc3)nc(CCC(F)(F)C(F)(F)F)nc21` (single isomer, unassigned) [Example 46, 4-Amino-5-methyl-5-(4-(1-methyl-1H-pyrazol-4-yl)phenyl)-2-(6-(3,3,4,4,4-pentafluorobutyl)-1-trideuteriomethyl-1H-pyrazolo[3,4-d]pyrimidin-4-yl)-5H-pyrrolo[2,3-d]pyrimidin-6(7H)-one], the 50% effective concentration (EC50) was 90 nM and the Emax was found to be 91%.
For `Cn1ncc2c(-c3nc(N)c4c(n3)NC(=O)C4(C)NC(=O)C3CC3)nc(CCC(F)(F)C(F)(F)F)nc21` (stereo not drawn) [Example 53, N-(4-Amino-5-methyl-2-(1-methyl-6-(3,3,4,4,4-pentafluorobutyl)-1H-pyrazolo[3,4-d]pyrimidin-4-yl)-6-oxo-6,7-dihydro-5H-pyrrolo[2,3-d]pyrimidin-5-yl)cyclopropanecarboxamide], a half-maximal effect (EC50) was put at 869 nM and the Emax was determined as 104%.
For `[2H]C([2H])([2H])n1nnc2c(-c3nc(N)c4c(n3)NC(=O)C4(C)c3ccccc3)nc(CCC(F)(F)C(F)(F)F)nc21` (single isomer, unassigned) [Example 68, 4-Amino-5-methyl-2-(5-(3,3,4,4,4-pentafluorobutyl-3-trideuteriomethyl)-3H-[1,2,3]triazolo[4,5-d]pyrimidin-7-yl)-5-phenyl-5H-pyrrolo[2,3-d]pyrimidin-6(7H)-one], a half-maximal response (EC50) required 403 nM and the Emax came out at 107%.
In the same order, the values of `Cn1ncc2c(-c3nc(N)c4c(n3)NC(=O)C4(C)c3ccccc3)nc(CCCC(F)(F)F)nc21` (single isomer, unassigned) [Example 3, 4-Amino-5-methyl-2-(1-methyl-6-(4,4,4-trifluorobutyl)-1H-pyrazolo[3,4-d]pyrimidin-4-yl)-5-phenyl-5H-pyrrolo[2,3-d]pyrimidin-6(7H)-one] are 119 nM and 132%.
